The test system of assay [1] is A-375. The assay is described as follows: Growth inhibition of human A375 cells. It counts as functional, cell-based.
For assay [2], the system named is LoVo. Nature of the assay: Growth inhibition of human LoVo cells. Format: functional, cell-based.
Assay [3] has as its system HT-29. Nature of the assay: Growth inhibition of human HT-29 cells. Format: functional, cell-based.
Assay [4] relates to Caco-2. Nature of the assay: Growth inhibition of human Caco-2 cells. Format: functional, cell-based.
Assay [5] is described as follows: Growth inhibition of human WM266.4 cells. It counts as functional, cell-based. The following applies: WM 266-4.
Assay [6] has as its target Cyclin-dependent kinase 4 (Homo sapiens, UniProt P11802). Nature of the assay: Inhibition of CDK4.
Assay [7] addresses T1, Inhibitor of nuclear factor kappa-B kinase subunit beta (Homo sapiens, UniProt O14920).
T1 sequence (O14920 whole entry): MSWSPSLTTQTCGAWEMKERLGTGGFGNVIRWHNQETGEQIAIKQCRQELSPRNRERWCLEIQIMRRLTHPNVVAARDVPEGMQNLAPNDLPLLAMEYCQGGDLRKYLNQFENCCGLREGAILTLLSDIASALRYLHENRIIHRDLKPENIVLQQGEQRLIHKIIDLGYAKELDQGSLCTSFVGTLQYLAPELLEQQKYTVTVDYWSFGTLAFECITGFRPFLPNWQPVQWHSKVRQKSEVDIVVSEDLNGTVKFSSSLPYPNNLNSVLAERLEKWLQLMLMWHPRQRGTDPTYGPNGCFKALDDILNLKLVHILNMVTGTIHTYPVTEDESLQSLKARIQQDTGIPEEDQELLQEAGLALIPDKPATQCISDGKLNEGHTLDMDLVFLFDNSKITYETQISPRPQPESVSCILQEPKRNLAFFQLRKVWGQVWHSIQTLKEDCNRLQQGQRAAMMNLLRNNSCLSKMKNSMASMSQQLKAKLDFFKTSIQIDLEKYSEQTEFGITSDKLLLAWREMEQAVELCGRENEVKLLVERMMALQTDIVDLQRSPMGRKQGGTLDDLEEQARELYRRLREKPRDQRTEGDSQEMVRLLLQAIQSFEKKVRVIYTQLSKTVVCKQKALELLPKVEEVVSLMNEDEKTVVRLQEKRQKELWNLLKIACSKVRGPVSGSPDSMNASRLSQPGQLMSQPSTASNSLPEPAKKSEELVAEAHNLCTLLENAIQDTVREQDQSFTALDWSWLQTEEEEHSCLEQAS
The assay is described as follows: Inhibition of IKK2.

Assay [8] deals with RAC-alpha serine/threonine-protein kinase (Homo sapiens, UniProt P31749). Nature of the assay: Inhibition of AKT.
Chain of RAC-alpha serine/threonine-protein kinase (P31749 whole entry): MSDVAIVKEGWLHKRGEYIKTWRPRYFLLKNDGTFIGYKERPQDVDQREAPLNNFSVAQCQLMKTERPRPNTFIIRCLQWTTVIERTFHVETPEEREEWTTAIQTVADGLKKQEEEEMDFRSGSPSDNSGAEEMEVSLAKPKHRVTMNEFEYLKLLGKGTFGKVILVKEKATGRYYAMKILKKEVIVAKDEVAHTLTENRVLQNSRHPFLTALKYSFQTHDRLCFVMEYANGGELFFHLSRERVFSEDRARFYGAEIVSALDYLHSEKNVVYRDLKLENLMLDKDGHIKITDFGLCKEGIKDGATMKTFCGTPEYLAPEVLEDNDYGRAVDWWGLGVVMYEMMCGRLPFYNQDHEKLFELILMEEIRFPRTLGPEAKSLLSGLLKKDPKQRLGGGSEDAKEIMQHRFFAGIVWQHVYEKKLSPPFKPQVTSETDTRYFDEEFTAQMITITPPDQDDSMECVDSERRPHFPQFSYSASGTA
Assay [9] concerns the target Serine/threonine-protein kinase mTOR (Homo sapiens, UniProt P42345). Nature of the assay: Inhibition of mTOR.
The target in assay [10] is T2, Tyrosine-protein kinase ITK/TSK (Homo sapiens, UniProt Q08881).
T2 sequence (Q08881 whole entry): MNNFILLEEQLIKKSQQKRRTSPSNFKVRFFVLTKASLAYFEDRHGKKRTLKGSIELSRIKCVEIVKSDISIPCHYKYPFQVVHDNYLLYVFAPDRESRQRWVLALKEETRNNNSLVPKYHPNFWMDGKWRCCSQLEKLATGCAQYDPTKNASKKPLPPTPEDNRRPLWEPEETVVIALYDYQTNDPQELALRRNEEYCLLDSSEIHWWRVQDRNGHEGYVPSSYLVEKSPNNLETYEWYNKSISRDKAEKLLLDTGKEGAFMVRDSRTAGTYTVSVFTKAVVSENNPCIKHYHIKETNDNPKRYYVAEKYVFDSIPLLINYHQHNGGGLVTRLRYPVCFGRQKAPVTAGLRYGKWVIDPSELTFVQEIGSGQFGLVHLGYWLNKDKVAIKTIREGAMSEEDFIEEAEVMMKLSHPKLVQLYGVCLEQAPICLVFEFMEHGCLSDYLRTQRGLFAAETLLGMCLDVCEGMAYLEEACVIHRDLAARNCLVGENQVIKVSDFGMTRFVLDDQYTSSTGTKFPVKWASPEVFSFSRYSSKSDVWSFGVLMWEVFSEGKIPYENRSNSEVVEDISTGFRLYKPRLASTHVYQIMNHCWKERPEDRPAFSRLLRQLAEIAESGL
The assay is described as follows: Inhibition of ITK.

Assay [11] addresses Protein kinase C theta type (Homo sapiens, UniProt Q04759). Nature of the assay: Inhibition of PKCtheta.
Assay [12] addresses Tyrosine-protein kinase BTK (Homo sapiens, UniProt Q06187). The assay is described as follows: Inhibition of BTK.
In assay [13] the target is Proto-oncogene tyrosine-protein kinase Src (Homo sapiens, UniProt P12931). The assay is described as follows: Inhibition of SRC.
Chain of Proto-oncogene tyrosine-protein kinase Src (P12931 2-536 limits assumed): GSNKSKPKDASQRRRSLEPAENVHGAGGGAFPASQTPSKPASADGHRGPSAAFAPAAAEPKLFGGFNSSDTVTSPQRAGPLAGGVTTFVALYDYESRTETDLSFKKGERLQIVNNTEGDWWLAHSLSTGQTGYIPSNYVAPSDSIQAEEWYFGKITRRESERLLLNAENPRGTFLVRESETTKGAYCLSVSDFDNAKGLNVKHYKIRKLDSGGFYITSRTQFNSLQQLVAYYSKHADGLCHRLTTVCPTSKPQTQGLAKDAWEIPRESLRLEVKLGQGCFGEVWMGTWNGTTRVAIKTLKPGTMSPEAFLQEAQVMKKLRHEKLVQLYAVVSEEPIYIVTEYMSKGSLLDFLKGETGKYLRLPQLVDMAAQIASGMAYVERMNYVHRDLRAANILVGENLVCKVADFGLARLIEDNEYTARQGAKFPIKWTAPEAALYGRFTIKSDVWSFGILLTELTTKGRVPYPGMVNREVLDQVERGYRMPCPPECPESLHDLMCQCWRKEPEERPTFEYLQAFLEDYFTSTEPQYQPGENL
Assay [14] concerns the target Tyrosine-protein kinase Lyn (Homo sapiens, UniProt P07948). The assay is described as follows: Inhibition of LYN.
Assay [15] deals with Phosphatidylinositol 4,5-bisphosphate 3-kinase catalytic subunit alpha isoform (Homo sapiens, UniProt P42336). Nature of the assay: Inhibition of PI3Kalpha.
Chain of Phosphatidylinositol 4,5-bisphosphate 3-kinase catalytic subunit alpha isoform (P42336 whole entry, canonical isoform): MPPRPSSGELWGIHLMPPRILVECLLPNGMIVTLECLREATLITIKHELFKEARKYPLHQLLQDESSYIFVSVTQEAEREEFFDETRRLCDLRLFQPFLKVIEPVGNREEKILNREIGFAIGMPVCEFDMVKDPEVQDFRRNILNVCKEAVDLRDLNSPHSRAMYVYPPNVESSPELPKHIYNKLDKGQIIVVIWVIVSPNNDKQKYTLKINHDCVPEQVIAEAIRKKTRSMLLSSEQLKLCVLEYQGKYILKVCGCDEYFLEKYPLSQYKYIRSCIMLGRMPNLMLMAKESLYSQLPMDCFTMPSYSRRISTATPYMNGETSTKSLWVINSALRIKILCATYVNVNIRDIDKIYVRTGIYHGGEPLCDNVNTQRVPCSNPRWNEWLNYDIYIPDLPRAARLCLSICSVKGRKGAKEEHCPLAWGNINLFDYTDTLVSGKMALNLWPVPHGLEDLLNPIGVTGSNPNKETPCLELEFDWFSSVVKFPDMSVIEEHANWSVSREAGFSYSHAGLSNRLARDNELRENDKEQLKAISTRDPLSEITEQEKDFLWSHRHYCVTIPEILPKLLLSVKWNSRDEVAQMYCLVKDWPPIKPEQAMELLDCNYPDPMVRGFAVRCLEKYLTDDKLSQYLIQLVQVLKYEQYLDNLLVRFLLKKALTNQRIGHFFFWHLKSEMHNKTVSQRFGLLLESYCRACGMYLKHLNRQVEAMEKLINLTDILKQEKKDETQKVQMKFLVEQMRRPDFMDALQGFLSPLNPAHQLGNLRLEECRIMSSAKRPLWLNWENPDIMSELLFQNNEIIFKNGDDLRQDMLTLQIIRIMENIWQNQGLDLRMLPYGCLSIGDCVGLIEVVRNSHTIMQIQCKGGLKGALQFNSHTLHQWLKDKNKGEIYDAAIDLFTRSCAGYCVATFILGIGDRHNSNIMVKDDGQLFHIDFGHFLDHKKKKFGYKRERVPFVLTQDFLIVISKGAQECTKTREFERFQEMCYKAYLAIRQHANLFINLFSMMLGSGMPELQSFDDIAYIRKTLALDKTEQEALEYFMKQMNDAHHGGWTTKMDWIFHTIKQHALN
Assay [16] deals with Serine/threonine-protein kinase B-raf (Homo sapiens, UniProt P15056). Nature of the assay: Inhibition of B-Raf.
Chain of Serine/threonine-protein kinase B-raf (P15056 whole entry): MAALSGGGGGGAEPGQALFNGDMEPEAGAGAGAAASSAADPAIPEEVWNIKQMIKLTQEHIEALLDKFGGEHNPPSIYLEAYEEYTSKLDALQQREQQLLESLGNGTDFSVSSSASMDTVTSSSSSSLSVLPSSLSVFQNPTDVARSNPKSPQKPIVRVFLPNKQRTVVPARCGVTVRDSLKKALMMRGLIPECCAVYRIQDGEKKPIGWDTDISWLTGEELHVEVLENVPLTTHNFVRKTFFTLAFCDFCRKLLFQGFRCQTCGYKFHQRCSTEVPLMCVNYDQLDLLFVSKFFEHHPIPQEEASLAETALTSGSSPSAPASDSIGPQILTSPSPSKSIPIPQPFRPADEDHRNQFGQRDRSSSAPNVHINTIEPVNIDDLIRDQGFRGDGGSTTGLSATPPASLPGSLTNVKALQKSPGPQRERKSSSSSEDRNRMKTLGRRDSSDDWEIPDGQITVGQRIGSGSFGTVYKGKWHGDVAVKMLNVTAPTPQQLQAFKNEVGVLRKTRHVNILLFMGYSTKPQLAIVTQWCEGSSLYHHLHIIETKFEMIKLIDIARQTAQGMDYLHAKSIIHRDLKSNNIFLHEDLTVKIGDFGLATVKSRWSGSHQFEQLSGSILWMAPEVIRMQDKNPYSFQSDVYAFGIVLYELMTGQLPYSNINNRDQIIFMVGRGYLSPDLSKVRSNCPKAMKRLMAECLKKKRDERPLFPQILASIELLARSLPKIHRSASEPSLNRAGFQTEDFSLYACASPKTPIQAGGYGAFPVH

A value given as a limit tells only on which side of the number the result lay.

Chain of Tyrosine-protein kinase BTK (Q06187 whole entry): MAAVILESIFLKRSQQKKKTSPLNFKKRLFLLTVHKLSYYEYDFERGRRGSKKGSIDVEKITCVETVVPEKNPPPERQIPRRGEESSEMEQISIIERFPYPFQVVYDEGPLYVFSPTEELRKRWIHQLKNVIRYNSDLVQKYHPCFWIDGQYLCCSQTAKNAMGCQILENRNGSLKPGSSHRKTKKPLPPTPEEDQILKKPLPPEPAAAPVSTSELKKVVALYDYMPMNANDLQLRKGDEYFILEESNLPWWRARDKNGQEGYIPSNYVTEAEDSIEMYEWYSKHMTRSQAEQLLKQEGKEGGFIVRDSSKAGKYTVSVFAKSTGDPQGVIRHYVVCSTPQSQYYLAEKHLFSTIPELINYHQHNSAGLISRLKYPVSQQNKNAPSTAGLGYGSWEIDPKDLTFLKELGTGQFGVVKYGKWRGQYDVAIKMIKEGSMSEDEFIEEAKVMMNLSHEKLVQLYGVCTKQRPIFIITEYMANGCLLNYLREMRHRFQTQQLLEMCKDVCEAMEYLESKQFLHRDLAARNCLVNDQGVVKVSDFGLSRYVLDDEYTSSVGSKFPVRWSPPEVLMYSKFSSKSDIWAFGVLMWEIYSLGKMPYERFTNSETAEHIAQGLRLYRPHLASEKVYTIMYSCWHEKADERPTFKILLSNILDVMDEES
Chain of Cyclin-dependent kinase 4 (P11802 whole entry): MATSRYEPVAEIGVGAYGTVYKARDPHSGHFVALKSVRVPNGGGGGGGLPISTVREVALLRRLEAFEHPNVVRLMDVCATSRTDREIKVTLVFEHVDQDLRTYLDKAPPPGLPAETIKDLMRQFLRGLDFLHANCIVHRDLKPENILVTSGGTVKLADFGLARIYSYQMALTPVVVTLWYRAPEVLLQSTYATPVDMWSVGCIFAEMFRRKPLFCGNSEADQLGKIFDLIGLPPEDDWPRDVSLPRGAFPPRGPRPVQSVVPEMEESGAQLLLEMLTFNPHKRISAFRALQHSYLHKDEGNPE
Chain of Tyrosine-protein kinase Lyn (P07948 whole entry, canonical isoform): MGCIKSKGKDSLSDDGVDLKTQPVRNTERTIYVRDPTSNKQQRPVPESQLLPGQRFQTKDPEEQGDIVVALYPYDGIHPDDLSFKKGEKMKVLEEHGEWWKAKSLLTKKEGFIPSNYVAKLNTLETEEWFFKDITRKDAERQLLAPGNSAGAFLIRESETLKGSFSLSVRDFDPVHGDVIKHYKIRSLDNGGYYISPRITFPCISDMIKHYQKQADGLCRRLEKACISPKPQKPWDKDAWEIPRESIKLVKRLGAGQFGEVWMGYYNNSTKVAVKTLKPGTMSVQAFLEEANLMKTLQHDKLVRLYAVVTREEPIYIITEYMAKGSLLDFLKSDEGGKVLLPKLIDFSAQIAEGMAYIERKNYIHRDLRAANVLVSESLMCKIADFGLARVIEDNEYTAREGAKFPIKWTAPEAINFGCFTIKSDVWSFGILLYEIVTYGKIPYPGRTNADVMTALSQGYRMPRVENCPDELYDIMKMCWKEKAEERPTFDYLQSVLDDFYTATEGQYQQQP
Chain of Protein kinase C theta type (Q04759 whole entry): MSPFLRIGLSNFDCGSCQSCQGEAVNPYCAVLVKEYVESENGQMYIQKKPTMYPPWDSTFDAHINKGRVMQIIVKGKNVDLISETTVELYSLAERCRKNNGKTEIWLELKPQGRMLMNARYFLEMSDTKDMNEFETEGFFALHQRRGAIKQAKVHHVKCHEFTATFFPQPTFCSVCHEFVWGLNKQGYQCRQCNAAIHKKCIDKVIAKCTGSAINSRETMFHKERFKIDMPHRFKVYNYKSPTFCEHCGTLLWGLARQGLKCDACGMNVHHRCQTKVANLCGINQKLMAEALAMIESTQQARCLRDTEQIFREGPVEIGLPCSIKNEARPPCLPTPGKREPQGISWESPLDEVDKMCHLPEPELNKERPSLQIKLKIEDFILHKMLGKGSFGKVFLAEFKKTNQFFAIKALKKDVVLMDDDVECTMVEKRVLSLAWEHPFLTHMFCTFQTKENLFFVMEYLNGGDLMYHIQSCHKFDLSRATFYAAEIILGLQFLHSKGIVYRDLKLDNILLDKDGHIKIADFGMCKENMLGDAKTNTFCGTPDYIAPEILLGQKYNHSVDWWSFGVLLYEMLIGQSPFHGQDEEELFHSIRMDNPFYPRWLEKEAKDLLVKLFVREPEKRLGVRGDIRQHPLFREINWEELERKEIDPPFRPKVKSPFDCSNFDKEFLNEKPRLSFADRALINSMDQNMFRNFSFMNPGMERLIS

Broadly, the IC50 is the concentration needed to halve the response being measured. With `O=C(Nc1cccc(-c2ncnc3sc(-c4ccncc4)cc23)c1)c1cccc(C(F)(F)F)c1`, the IC50 was 0.23 µM in [1]; 0.3 µM in [2]; 0.15 µM in assay [3]; 1.1 µM in assay [4]; 3.1 µM in [5]; > 10 µM in assay [6]. Besides, the IC50 in [7], in assay [8], in assay [9], in assay [10], in [11] and in [12] was > 10 µM each time. Moreover, the IC50 in assay [13], in [14] and in [15] was > 10 µM throughout.

On to `N#Cc1cnc2cc(-c3cccnc3)sc2c1-c1cccc(NC(=O)c2cccc(C(F)(F)F)c2)c1`, for which, in assay [16], the IC50 was > 10 µM.

In the case of `O=C(Nc1cccc(-c2ncnc3cc(-c4cccnc4)sc23)c1)c1cccc(C(F)(F)F)c1`, the IC50 in assay [16] was > 10 µM.

`O=C(Nc1cccc(-c2ccnc3cc(-c4cccnc4)nn23)c1)c1cccc(C(F)(F)F)c1`: in assay [16], the IC50 is > 10 µM.

Turning to `N#Cc1cnc2sc(-c3ccncc3)cc2c1-c1cccc(NC(=O)c2cccc(C(F)(F)F)c2)c1`, the IC50 in assay [16] is > 10 µM.

In the case of `N#Cc1cnc2sc(-c3cccnc3)cc2c1-c1cccc(NC(=O)c2cccc(C(F)(F)F)c2)c1`, in assay [16], the IC50 was > 10 µM.
